Assay results taken from patent publication US7816350B2, “Substituted [1,2,3] triazolo[4,5-D]pyrimidines as cdk inhibitors” (Institute of Experimental Botany ASCR, priority 2002, dated 2010).

Assays:
IκB-α kinase = IκB-α kinase inhibitory activity, in vitro kinase assay; format: biochemical
p34^cdc2/cyclin B (CDC2) = molecular target: T1, p34^cdc2/cyclin B (CDC2) (Homo sapiens, UniProt P06493); experiment: CDK inhibition assay, p34cdc2/cyclin B kinase, histone H1 phosphorylation; format: biochemical
T1 construct: made in house; host or cells: Sf9 insect cells (baculovirus co-infection)
Experimental: Cyclin-dependent kinases (p34^cdc2, p33^cdk2) and cyclins (cyclin B, E) are produced in Sf9 insect cells coinfected with appropriate baculoviral constructs. The cells are harvested 68-72 hrs post infection in lysis buffer for 30 min on ice and the soluble fraction is recovered by centrifugation at 14.000 g for 10 min. The protein extract is stored at −80° C.
Lysis buffer: 50 mM Tris pH 7.4, 150 mM NaCl, 5 mM EDTA, 20 mM NaF, 1% Tween, 1 mM DTT, 0.1 mM PMSF, leupeptine, aprotonine.
To carry out experiments on kinetics under linear conditions, the final point test system for kinase activity measurement is used. The kinase is added to reaction mixture in such a way as to obtain linear activity with respect to the concentration of enzyme and with respect to time.
The p34^cdc2 and p33^cdk2 kinase inhibition determination involves the use of 1 mg/ml histone H1 (Sigma, type III-S) in the presence of 15 μM [γ-^32P]ATP ([…]) (Amersham) in a final volume of 20 μl. Kinase activity is determined at 30° C. in the kinase buffer.
Tested compounds are usually dissolved to 100 mM solutions in DMSO, final concentration of DMSO in reaction mixture never exceeds 1%. The controls contain suitable dilutions of DMSO.
After 10 min, addition 3×SDS sample buffer stops the incubations. Phosphorylated proteins are separated electrophoretically using 12.5% SDS polyacrylamide gel. The measurement of kinase activity is done using digital image analysis.
The kinase activity is expressed as a percentage of maximum activity, the apparent inhibition constants are determined by graphic analysis (FIG. 1).
Kinase buffer: 50 mM Hepes pH 7.4, 10 mM MgCl2, 5 mM EGTA, 10 mM 2-glycerolphosphate, 1 mM NaF, 1 mM DTT

T1 sequence (P06493 whole entry, species assumed): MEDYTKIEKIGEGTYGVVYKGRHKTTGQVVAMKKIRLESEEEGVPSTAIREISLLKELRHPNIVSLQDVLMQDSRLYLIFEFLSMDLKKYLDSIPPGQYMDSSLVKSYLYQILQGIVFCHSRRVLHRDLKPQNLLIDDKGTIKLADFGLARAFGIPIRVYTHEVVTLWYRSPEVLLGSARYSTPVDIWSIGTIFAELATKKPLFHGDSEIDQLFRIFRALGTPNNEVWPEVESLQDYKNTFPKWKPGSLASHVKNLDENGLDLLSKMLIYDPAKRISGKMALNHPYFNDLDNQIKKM
T1 sequence (P14635 whole entry partner, species assumed): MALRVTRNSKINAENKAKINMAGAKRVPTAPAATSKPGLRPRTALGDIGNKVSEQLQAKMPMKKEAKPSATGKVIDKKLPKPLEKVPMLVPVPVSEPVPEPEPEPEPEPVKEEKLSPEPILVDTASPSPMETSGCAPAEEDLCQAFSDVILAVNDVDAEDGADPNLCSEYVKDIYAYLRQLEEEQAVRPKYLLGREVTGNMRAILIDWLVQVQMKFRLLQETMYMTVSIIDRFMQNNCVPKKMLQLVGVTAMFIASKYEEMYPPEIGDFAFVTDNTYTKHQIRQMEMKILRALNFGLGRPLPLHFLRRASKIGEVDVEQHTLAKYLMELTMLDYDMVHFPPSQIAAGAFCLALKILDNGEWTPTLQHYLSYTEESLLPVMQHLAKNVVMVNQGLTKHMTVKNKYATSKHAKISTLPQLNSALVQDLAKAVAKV

Row | SMILES | IC50 (IκB-α kinase) [µM] | IC50 (p34^cdc2/cyclin B (CDC2)) [µM]
1 | CC[C@H](CO)Nc1nc(NCc2cccc(C(C)=O)c2)c2nnn(C(C)C)c2n1 | > 100 | 58
2 | CC[C@H](CO)Nc1nc(NCc2ccc(O)c(O)c2)c2nnn(C(C)C)c2n1 | > 100 | 40
3 | CC[C@H](CO)Nc1nc(NCc2c(N)cccc2Cl)c2nnn(C(C)C)c2n1 | > 100 | 31
4 | CC[C@H](CO)Nc1nc(Nc2ccc(Cl)cc2)c2nnn(C(C)C)c2n1 | – | 27
5 | CC(C)[C@H](CO)Nc1nc(NCc2c(N)cccc2Cl)c2nnn(C(C)C)c2n1 | > 100 | 10
6 | Cn1nnc2c(Nc3ccccc3)nc(NCCO)nc21 [2-hydroxyethylamino / anilino / methyl] | > 100 | 42
7 | Cn1nnc2c(Nc3ccc(Cl)c(C(=O)O)c3)nc(NCCO)nc21 | > 100 | 43
8 | CCC(CO)Nc1nc(NC(CO)c2ccccc2)c2nnn(C(C)C)c2n1 (centres unmarked) | > 100 | –
9 | Cc1cccc(CNc2nc(NCCO)nc3c2nnn3C)c1O | > 100 | 85
10 | CC[C@H](CO)Nc1nc(NCc2c(O)cc(Cl)cc2O)c2nnn(C(C)C)c2n1 | – | 12
11 | CC[C@H](CO)Nc1nc(NCc2cccc(OC(C)=O)c2)c2nnn(C(C)C)c2n1 | > 100 | 24
12 | CC(C)[C@H](CO)Nc1nc(NCc2ccccc2)c2nnn(C)c2n1 | > 100 | 50
13 | Cn1nnc2c(NCc3c(O)cc(Cl)cc3O)nc(NCCO)nc21 | > 100 | 22
14 | CC(=O)c1cccc(CNc2nc(NCCO)nc3c2nnn3C)c1 | > 100 | 80
15 | CC[C@H](CO)Nc1nc(NCc2c(O)cc(OC)cc2O)c2nnn(C(C)C)c2n1 | > 100 | 17
16 | CCC(CO)Nc1nc(NCc2cccc(Cl)c2O)c2nnn(C(C)C)c2n1 (centres unmarked) | – | 16
17 | CC(C)[C@H](CO)Nc1nc(NC(CO)c2ccccc2)c2nnn(C(C)C)c2n1 (mixture of isomers) | > 100 | 50
18 | CC[C@H](CO)Nc1nc(NCc2ccccc2)c2nnn(C(C)C)c2n1 [2-[1(R)-Hydroxymethylpropylamino]-6-benzylamino-9-isopropyl-8-azapurine] | > 100 | –
19 | Cn1nnc2c(NCc3ccc(Cl)c(N)c3N)nc(NCCO)nc21 | > 100 | 68
20 | COc1cc(O)c(CNc2nc(NCCO)nc3c2nnn3C)c(O)c1 | – | 18.2
21 | Cn1nnc2c(NC(CO)c3ccccc3)nc(NCCO)nc21 (racemic) | > 100 | 80
22 | Cn1nnc2c(NCc3ccc(Cl)c(N)c3)nc(NCCO)nc21 | – | 50
23 | Cn1nnc2c(NCc3ccc(O)c(O)c3)nc(NCCO)nc21 | > 100 | –

Row | SMILES | IC50 (IκB-α kinase) [µM] | IC50 (p34^cdc2/cyclin B (CDC2)) [µM]
24 | CC(C)[C@H](CO)Nc1nc(NCc2ccc(Cl)c(O)c2O)c2nnn(C(C)C)c2n1 | > 100 | 11
25 | COc1cccc(CNc2nc(N[C@@H](CO)C(C)C)nc3c2nnn3C(C)C)c1O | > 100 | 55
26 | CC(C)[C@H](CO)Nc1nc(NCc2c(O)cc(Cl)cc2O)c2nnn(C(C)C)c2n1 | – | 18
27 | CC[C@H](CO)Nc1nc(NCc2ccc(Cl)c(N)c2N)c2nnn(C(C)C)c2n1 | > 100 | 45
28 | Cn1nnc2c(Nc3ccc(Br)cc3)nc(NCCO)nc21 | > 100 | > 100
29 | Cn1nnc2c(NCc3ccccc3)nc(NCCCN)nc21 | > 100 | 90
30 | CC[C@H](CO)Nc1nc(NCc2ccccc2)c2nnn(C)c2n1 | > 100 | –
31 | CC(C)[C@H](CO)Nc1nc(NCc2ccc(Cl)c(N)c2N)c2nnn(C(C)C)c2n1 | > 100 | 34
32 | CC(C)n1nnc2c(NCc3ccccc3)nc(N(CCO)CCO)nc21 | > 100 | 95
33 | CC[C@H](CO)Nc1nc(NCc2cc(O)c(Cl)cc2O)c2nnn(C(C)C)c2n1 | > 100 | 16
34 | CC[C@H](CO)Nc1nc(NCc2cc(O)c(OC)cc2O)c2[nH]nc(C(C)C)c2n1 | > 100 | 12
35 | Cn1nnc2c(Nc3ccc(Cl)cc3)nc(NCCO)nc21 | > 100 | > 100
36 | CC(C)[C@H](CO)Nc1nc(N(C)CCc2ccc(O)c(O)c2)c2nnn(C(C)C)c2n1 | > 100 | –
37 | Cn1nnc2c(Nc3cccc(Cl)c3)nc(NCCO)nc21 | > 100 | –
38 | CC(C)[C@H](CO)Nc1nc(NCc2ccc(Cl)c(N)c2)c2nnn(C(C)C)c2n1 | > 100 | 30
39 | Cn1nnc2c(NCc3ccccc3)nc(NCCO)nc21 | > 100 | > 100
40 | CC[C@H](CO)Nc1nc(N(C)CCc2ccc(O)c(O)c2)c2nnn(C(C)C)c2n1 | > 100 | > 100
41 | Cn1nnc2c(NCc3ccccc3)nc(N(CCO)CCO)nc21 | > 100 | –
42 | CC(C)[C@H](CO)Nc1nc(NCc2ccc(O)c(O)c2)c2nnn(C(C)C)c2n1 | > 100 | 20
43 | CC[C@H](CO)Nc1nc(NCc2ccc(Cl)c(N)c2)c2nnn(C(C)C)c2n1 | > 100 | 29
44 | COc1cc(O)c(CNc2nc(NCCO)nc3c2nnn3C)cc1O | – | 22
45 | CC(C)[C@H](CO)Nc1nc(Nc2ccc(C(=O)O)c(Cl)c2)c2nnn(C(C)C)c2n1 | – | 25

Other lines, results leading:

Row | IC50 (IκB-α kinase) [µM] | IC50 (p34^cdc2/cyclin B (CDC2)) [µM] | SMILES
46 | > 100 | > 100 | CC(C)n1nnc2c(NCc3ccccc3)nc(NCCCO)nc21 [2-(3-Hydroxypropylamino)-6-benzylamino-9-isopropyl-8-azapurine]
47 | > 100 | 40 | CC[C@H](CO)Nc1nc(Nc2ccc(Cl)c(C(=O)O)c2)c2nnn(C(C)C)c2n1
48 | > 100 | 37 | CC[C@H](CO)Nc1nc(NCc2ccccc2C(C)=O)c2nnn(C(C)C)c2n1
49 | 80 | 34 | CC[C@H](CO)Nc1nc(NCc2cccc(C)c2O)c2nnn(C(C)C)c2n1
50 | > 100 | 70 | Cn1nnc2c(NCc3cccc(Cl)c3O)nc(NCCO)nc21
51 | > 100 | 52 | Cn1nnc2c(Nc3ccc(C(=O)O)c(Cl)c3)nc(NCCO)nc21
52 | 75 | 15 | CC[C@H](CO)Nc1nc(NCc2cccc(OC)c2O)c2nnn(C(C)C)c2n1
53 | > 100 | > 100 | CC(C)n1nnc2c(NCc3ccccc3)nc(NCCO)nc21
54 | 70 | 35 | CC[C@H](CO)Nc1nc(Nc2ccc(C(=O)O)c(Cl)c2)c2nnn(C(C)C)c2n1
55 | > 100 | 50 | Cn1nnc2c(Nc3cc(N)cc(Cl)c3)nc(NCCO)nc21
56 | > 100 | 58 | Cn1nnc2c(Nc3ccc(O)c(C(=O)O)c3)nc(NCCO)nc21
57 | > 100 | – | CC[C@H](CO)Nc1nc(N(C)Cc2ccc(O)c(O)c2)c2nnn(C(C)C)c2n1
58 | > 100 | 10 | COc1cc(O)c(CNc2nc(N[C@@H](CO)C(C)C)nc3c2nnn3C(C)C)c(O)c1
59 | > 100 | – | CN(Cc1ccc(O)c(O)c1)c1nc(NCCO)nc2c1nnn2C
60 | > 100 | > 100 | Cn1nnc2c(Nc3ccc(Cl)c(N)c3)nc(NCCO)nc21
61 | > 100 | 14 | CC[C@H](CO)Nc1nc(NCc2ccc(OC)c(O)c2O)c2nnn(C(C)C)c2n1

Row | IC50 (IκB-α kinase) [µM] | IC50 (p34^cdc2/cyclin B (CDC2)) [µM] | SMILES
62 | > 100 | 19 | CC[C@H](CO)Nc1nc(NCc2ccccc2OC(C)=O)c2nnn(C(C)C)c2n1
63 | 40 | 36 | CC(=O)Oc1ccccc1CNc1nc(NCCO)nc2c1nnn2C
64 | 80 | 27 | CC(C)[C@H](CO)Nc1nc(Nc2cc(N)cc(Cl)c2)c2nnn(C(C)C)c2n1
65 | 45 | 23 | Cn1nnc2c(NCc3ccccc3O)nc(NCCO)nc21
66 | 75 | 28 | CC[C@H](CO)Nc1nc(Nc2cc(N)cc(Cl)c2)c2nnn(C(C)C)c2n1
67 | 80 | 14 | CC[C@H](CO)Nc1nc(NCc2ccccc2O)c2nnn(C(C)C)c2n1
68 | 70 | 29 | CC[C@H](CO)Nc1nc(Nc2ccccc2)c2nnn(C(C)C)c2n1
69 | 70 | 25 | Cn1nnc2c(NCc3ccccc3)nc(NC3CCCCC3N)nc21 (centres unmarked)
70 | 68 | 52 | Cn1nnc2c(NCc3c(N)cccc3Cl)nc(NCCO)nc21
71 | 40 | 16 | Cn1nnc2c(NCc3ccccc3)nc(NC3CCC(N)CC3)nc21 (centres unmarked)
72 | 60 | 32 | CC(C)[C@H](CO)Nc1nc(NCc2cccc(Cl)c2O)c2nnn(C(C)C)c2n1
73 | 50 | 48 | CC(=O)Oc1cccc(CNc2nc(NCCO)nc3c2nnn3C)c1
74 | 50 | 15 | CC(C)[C@H](CO)Nc1nc(NCc2ccccc2)c2nnn(C(C)C)c2n1
75 | 48 | 3.7 | CC(C)n1nnc2c(NCc3ccccc3)nc(NC3CCC(N)CC3)nc21 (centres unmarked)
76 | 40 | 17 | Cn1nnc2c(NCc3cccc(O)c3)nc(NCCO)nc21
77 | 55 | 18 | Cc1cccc(CNc2nc(N[C@@H](CO)C(C)C)nc3c2nnn3C(C)C)c1O
